Patent publication US20220023232A1, “USE OF CANNABINOIDS IN THE TREATMENT OF EPILEPSY” (GW Research Limited, priority 2019, published 2022)

Legend:
seizures [1] = conditions: mice, after pro-convulsant drugs or an electric current; cited from earlier work
seizures [2] = conditions: 200 mg/day, four adult patients; cited from earlier work
seizures [3] = conditions: 200 mg/day, twelve institutionalized adult patients, open label; cited from earlier work
[4] = Solubility of drug substance in water; type: physicochemical
Source text: Sesame oil was selected as an excipient to solubilize the drug substance.

[5] = test system: secondary generalized epilepsy; conditions: eight adult patients; cited from earlier work
[6] = test system: epilepsy associated with KCNT1 mutation (EIMFS); assay: Expanded access case study of highly purified CBD in a child with KCNT1 mutation associated EIMFS; type: in vivo, human
Protocol: The child was […] when they were enrolled in an expanded access compassionate use program for CBD. The patient was diagnosed with Epilepsy of Infancy with Migrating Focal Seizures (EIMFS).
This subject was treated with a highly purified extract of cannabidiol (CBD) obtained from a cannabis plant. Seizure frequency and severity was documented in seizure diaries at baseline (4-week pre-treatment period) and over the treatment period. At each visit quality of life changes, including mood, behaviour, and cognitive function were recorded in addition to global impression of change using a numerical scale.
The patient first presented with seizures on the first day of life. They experienced on average 14 seizures per day. The types of seizure that occurred were motor arrest; asymmetric tonic; clonic extremity movements, irregular breathing and cyanosis.
The patient had tried and failed seven different anti-epileptic drugs and at the time of treatment and continued on the ketogenic diet however their seizures remained refractory.
Pharmaceutical-grade plant-derived CBD oral solution was gradually titrated by 2 to 5 mg/kg increments up to a maximum dose of 25 mg/kg/day.
Laboratory testing for hematologic, liver, kidney function and concomitant AED levels was performed at baseline, and after every 4 weeks of CBD therapy.
The patient was treated for over three years and remains on treatment currently.

seizures [7] = conditions: rabbit, in vivo; cited from earlier work
[8] = one patient, oral CBD up to 25 mg/kg/day

C=C(C)[C@@H]1CCC(C)=C[C@H]1c1c(O)cc(CCCCC)cc1O [CBD, Cannabidiol]
prevention of seizures (seizures [1]): able to prevent seizures
seizure freedom (seizures [2]): two of the four patients became seizure free
control of seizures (seizures [3]): ineffective
solubility in water [4]: insoluble in water
number of patients with marked reduction of seizures [5]: 4
demeanour and developmental milestones (caregiver documented) ([6]; after 6 months of treatment): more interactive and had attained new milestones including babbling, smiling, and fixing
reduction in overall seizure frequency ([6]; after 16 weeks of treatment, 25 mg/kg/day, one patient): 12%
side effects at maximum dose ([6]; after 16 weeks, 25 mg/kg/day): without side effects
side effect on titration ([6]; initial 12 week period, CBD titrated too quickly): somnolence
overall seizure frequency increase compared to baseline ([6]; initial 12 weeks of treatment, maximum dose of 25 mg/kg/day not reached, one patient): 13%
seizure severity ([6]; one patient): clinically meaningful reduction in seizure severity
reduction in Type C seizures (irregular breathing, cyanosis and clonic extremity movements) [6, 8]: 93%
reduction in Type D seizures (most severe, asymmetric tonic seizures) [6, 8]: 48%

CCCCCc1cc(O)c2c(c1)OC(C)(C)[C@@H]1CCC(C)=C[C@@H]21 [THC, Tetrahydrocannabinol]
effect on convulsions (seizures [7]): pro-convulsant
